PMC7774954, “Interactomic affinity profiling by holdup assay: Acetylation and distal residues impact the PDZome-binding specificity of PTEN phosphatase” (PLoS ONE, 2020)
*1 amine or outer side, *2 acyl side, *3 side chain or, on linkers, in order; H or OH if unused. Where a SMILES comes first, the peptide text is derived from it. The star is where a group is joined. X1 = O=C(CCCC[C@@H]1SC[C@@H]2NC(=O)N[C@@H]21)NCCCOCCOCCOCCCN*; Suc = O=C(CCC(=O)[*:2])[*:1]

What was measured:
DLG1 PDZ 2 = biological target: T1, DLG1 PDZ 2 (Homo sapiens, UniProt Q12959); test: Holdup assay, DLG1-2; type: binding; details: for BI: DLG1-2
T1 construct: made in house; host or cells: E. coli
T1 sequence (Q12959 319-405 limits assumed): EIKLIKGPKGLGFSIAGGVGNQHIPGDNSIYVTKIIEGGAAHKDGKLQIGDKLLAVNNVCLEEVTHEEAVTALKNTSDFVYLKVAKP
Experimental: (§1) The holdup assay was performed on a Tecan freedom Evo200 robot with 384-well plates in singlicate for the three 11-mer PTEN variants and the 13-mer PTEN peptide as described in [31, 32]. Briefly, prior to interaction assay, 2.5 μL of streptavidin resin was saturated in each well with 20 μL of biotinylated PBM peptides (42 μM) and then washed twice with an excess of free biotin, while the reference resin was incubated only with biotin. Right before the holdup experiment, the PDZ library was spiked with an internal standard of lysozyme. Then, the biotin- or PBM-saturated resin was incubated, each in a distinct well of a 384-well plate, with complete cell lysates diluted so that the concentration of the tag-PDZ present in the crude extract is adjusted at 4 μM. After a sufficient time to reach complex equilibrium (15 min.), a fast and mild filtration step is performed and the tag-PDZ concentrations were measured by capillary electrophoresis instrument (LabChip GXII, PerkinElmer, Massachusets, USA). Standard markers were used to convert migration time into molecular weight on the LabChip software and inappropriate molecular weight markers were corrected or excluded.
(§2) For filtered data, the BI was extracted with the following equation (Eq 1) that estimates the depleted fraction after superimposition of the sample and reference electropherograms: BI=Iref−Ilig/Iref (1) where Iref and Ilig are the intensities of the tag-PDZ peaks measured, for each PDZ domain/PBM peptide interaction pair, in the biotin reference and the PBM electropherograms, respectively.
(§3) BIs were transformed into dissociation constants (KD) using the following formula: KD=([PDZtot]−BI·[PDZtot])·([PBMtot]−BI·[PDZtot])/BI·[PDZtot] (2) where [PDZtot] and [PBMtot] correspond to the total concentrations of the PDZ domain (usually around 4 μM) and the PBM peptide used during the assay. Since the PBMtot concentration in the resin during the holdup assay parameter may differ from one peptide to another and remains unknown, it is impossible to directly convert BI values into KD constants. We systematically determined the KD constants for a subset of PDZ/PBM pairs by competitive FP. […] For each PBM, the average peptide concentration was calculated after outlier rejection based on the absolute distances from the median as compared to three times the standard deviation (3σ rule), with never more than 2 values rejected.

DLG4 PDZ 1 = biological target: T2, DLG4 PDZ 1 (Homo sapiens, UniProt P78352); test: Holdup assay, DLG4-1; type: binding; details: for BI: DLG4-1
T2 construct: made in house; host or cells: E. coli
T2 sequence (P78352 65-151): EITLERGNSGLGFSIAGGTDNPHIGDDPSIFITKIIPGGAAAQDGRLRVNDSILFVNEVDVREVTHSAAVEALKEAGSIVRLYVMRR
Experimental: as §1, §2, §3

MAGI2 PDZ 3 = biological target: T3, MAGI2 PDZ 3 (Homo sapiens, UniProt Q86UL8); test: Holdup assay, MAGI2-3; type: binding; details: for BI: MAGI2-3
T3 construct: made in house; host or cells: E. coli
T3 sequence (Q86UL8 605-683 limits assumed): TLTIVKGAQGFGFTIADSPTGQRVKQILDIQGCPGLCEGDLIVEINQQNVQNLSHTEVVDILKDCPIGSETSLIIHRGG
Experimental: as §1, §2, §3

SCRIB-3 = biological target: T4, SCRIB-3 (Homo sapiens, UniProt Q14160); test: Holdup assay, SCRIB-3; type: binding; details: PDZ domain SCRIB-3
T4 construct: Representative holdup data recorded for three PDZ domains (MAST2-1, HTRA1-1, SCRIB-3); made in house; host or cells: E. coli
T4 sequence (Q14160 1004-1093 limits assumed): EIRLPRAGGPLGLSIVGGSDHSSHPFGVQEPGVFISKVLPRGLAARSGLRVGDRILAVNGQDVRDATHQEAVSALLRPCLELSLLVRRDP
Experimental: as §1, §2

APBA2-2 = test: Holdup assay, APBA2-2; type: binding, human
APBA3-1 = test: Holdup assay, APBA3-1; type: binding, human
ARHGAP23-1 = test: Holdup assay, ARHGAP23-1; type: binding, human
CNKSR3-1 = test: Holdup assay, CNKSR3-1; type: binding, human
DFNB31-2 = test: Holdup assay, DFNB31-2; type: binding, human
DLG3-1 = test: Holdup assay, DLG3-1; type: binding, human
FRMPD1-1 = test: Holdup assay, FRMPD1-1; type: binding, human
FRMPD4-1 = test: Holdup assay, FRMPD4-1; type: binding, human
GIPC1-1 = test: Holdup assay, GIPC1-1; type: binding, human
GRIP1-4 = test: Holdup assay, GRIP1-4; type: binding, human
GRIP2-3 = test: Holdup assay, GRIP2-3; type: binding, human
IL16-3 = test: Holdup assay, IL16-3; type: binding, human
INADL-10 = test: Holdup assay, INADL-10; type: binding, human
INADL-2 = test: Holdup assay, INADL-2; type: binding, human
INADL-7 = INADL-7 (Homo sapiens, UniProt Q8NI35); test: Holdup assay, INADL-7; type: binding
INADL-7, sequence (Q8NI35 whole entry): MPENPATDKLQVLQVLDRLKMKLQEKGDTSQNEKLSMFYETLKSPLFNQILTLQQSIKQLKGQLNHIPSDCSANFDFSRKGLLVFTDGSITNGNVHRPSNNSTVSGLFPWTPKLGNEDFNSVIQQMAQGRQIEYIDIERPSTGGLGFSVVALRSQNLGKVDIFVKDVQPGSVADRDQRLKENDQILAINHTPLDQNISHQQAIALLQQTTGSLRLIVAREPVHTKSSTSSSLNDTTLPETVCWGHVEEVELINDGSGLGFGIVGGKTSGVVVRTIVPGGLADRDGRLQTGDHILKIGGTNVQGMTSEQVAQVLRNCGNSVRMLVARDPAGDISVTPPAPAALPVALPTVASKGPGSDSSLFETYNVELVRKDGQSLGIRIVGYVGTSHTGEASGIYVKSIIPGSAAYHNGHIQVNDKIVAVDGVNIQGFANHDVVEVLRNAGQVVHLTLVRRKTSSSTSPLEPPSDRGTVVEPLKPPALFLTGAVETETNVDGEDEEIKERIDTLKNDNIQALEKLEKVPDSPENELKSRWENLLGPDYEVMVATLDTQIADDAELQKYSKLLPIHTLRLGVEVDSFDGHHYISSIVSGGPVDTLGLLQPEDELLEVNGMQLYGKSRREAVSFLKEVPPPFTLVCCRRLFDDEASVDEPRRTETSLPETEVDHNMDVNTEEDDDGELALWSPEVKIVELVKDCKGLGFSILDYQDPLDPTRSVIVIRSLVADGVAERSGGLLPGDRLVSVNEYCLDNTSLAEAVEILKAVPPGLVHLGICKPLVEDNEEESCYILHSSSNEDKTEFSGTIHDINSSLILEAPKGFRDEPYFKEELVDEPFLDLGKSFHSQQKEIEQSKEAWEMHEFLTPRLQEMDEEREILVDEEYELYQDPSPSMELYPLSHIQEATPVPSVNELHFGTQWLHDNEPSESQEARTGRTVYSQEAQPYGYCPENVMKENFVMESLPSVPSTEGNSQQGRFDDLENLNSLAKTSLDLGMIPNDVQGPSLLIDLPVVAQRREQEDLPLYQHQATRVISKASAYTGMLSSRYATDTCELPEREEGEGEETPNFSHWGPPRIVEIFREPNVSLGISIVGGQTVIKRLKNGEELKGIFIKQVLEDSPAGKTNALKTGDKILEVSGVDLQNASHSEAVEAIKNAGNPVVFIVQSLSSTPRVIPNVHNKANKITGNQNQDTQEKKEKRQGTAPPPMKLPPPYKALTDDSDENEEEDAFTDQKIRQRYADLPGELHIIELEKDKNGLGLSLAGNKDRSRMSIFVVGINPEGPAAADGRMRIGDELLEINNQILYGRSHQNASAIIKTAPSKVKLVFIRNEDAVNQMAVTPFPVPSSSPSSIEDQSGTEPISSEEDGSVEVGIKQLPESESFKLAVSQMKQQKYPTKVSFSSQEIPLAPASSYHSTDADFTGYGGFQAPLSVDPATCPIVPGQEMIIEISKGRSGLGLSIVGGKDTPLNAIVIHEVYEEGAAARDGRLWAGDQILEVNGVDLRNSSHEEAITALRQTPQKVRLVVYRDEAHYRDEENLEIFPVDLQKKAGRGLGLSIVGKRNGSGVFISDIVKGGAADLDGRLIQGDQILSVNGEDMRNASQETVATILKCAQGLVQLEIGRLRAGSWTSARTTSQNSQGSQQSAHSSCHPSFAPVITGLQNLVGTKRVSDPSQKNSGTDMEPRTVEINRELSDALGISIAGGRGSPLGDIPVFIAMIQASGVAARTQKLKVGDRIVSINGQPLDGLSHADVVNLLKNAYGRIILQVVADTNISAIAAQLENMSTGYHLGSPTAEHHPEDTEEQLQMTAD

INTU-1 = test: Holdup assay, INTU-1; type: binding, human
LIN7B-1 = test: Holdup assay, LIN7B-1; type: binding, human
LRRC7-1 = LRRC7-1 (Homo sapiens, UniProt Q96NW7); test: Holdup assay, LRRC7-1; type: binding
LRRC7-1, sequence (Q96NW7 with tags, fused parts or gaps): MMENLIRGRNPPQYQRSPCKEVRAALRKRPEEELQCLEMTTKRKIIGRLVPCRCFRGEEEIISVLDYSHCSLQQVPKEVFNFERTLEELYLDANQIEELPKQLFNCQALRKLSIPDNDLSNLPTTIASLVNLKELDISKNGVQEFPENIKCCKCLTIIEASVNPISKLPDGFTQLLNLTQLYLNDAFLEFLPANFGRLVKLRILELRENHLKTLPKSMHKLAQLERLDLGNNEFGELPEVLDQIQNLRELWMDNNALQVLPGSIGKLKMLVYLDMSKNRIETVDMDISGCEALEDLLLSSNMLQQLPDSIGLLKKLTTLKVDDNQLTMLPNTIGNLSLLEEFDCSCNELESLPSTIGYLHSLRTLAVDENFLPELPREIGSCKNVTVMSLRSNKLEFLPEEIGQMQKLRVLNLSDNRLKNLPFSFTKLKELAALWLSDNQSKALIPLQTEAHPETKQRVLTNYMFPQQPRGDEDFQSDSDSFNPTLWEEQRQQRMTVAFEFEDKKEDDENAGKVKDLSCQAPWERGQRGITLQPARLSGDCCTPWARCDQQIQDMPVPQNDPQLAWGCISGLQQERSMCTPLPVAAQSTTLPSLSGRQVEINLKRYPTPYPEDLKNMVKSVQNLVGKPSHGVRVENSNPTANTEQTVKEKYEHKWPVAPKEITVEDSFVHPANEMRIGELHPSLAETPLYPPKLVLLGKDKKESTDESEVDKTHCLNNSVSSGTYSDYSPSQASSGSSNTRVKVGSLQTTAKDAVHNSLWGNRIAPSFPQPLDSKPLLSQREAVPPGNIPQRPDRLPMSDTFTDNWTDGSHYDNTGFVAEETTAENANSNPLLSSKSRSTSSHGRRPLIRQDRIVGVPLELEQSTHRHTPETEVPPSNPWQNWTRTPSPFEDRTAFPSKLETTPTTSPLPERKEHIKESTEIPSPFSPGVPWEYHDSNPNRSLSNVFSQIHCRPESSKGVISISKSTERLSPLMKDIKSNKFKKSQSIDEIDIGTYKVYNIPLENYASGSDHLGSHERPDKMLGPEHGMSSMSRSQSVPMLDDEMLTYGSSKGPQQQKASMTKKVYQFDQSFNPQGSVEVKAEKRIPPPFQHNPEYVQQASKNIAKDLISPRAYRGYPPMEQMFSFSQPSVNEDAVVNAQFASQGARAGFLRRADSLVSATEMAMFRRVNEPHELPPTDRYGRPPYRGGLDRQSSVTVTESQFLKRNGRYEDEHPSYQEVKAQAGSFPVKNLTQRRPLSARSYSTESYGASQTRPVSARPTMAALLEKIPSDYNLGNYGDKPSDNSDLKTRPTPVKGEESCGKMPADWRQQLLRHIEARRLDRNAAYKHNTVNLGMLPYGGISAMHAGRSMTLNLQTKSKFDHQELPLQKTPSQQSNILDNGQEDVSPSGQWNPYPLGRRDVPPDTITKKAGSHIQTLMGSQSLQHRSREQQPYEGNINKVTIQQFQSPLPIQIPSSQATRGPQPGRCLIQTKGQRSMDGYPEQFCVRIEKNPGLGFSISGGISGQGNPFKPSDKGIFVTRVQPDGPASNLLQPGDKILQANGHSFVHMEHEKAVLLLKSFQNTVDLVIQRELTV

MAGI1-5 = MAGI1-5 (Homo sapiens, UniProt Q96QZ7); test: Holdup assay, MAGI1-5; type: binding
MAGI1-5, sequence (Q96QZ7 970-1066): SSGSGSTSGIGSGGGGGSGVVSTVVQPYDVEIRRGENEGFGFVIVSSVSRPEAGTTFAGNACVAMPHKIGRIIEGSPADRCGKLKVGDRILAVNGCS

MAGIX-1 = test: Holdup assay, MAGIX-1; type: binding, human
MLLT4-1 = test: Holdup assay, MLLT4-1; type: binding, human
MPDZ-1 = test: Holdup assay, MPDZ-1; type: binding, human
MAGI1 PDZ 2 = biological target: T5, MAGI1 PDZ 2 (Homo sapiens, UniProt Q96QZ7); test: Holdup assay, MAGI1-2; type: binding
T5 construct: made in house; host or cells: E. coli
T5 sequence (Q96QZ7 472-554 limits assumed): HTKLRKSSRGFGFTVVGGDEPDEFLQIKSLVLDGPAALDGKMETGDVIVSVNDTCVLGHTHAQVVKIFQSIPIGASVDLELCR
Experimental: as §1, §2
BIs were transformed into dissociation constants (KD) using the following formula: KD=([PDZtot]−BI·[PDZtot])·([PBMtot]−BI·[PDZtot])/BI·[PDZtot] […] We systematically determined the KD constants for a subset of PDZ/PBM pairs by competitive FP. […] For each PBM, the average peptide concentration was calculated after outlier rejection based on the absolute distances from the median as compared to three times the standard deviation (3σ rule), with never more than 2 values rejected.

CC[C@H](C)[C@H](NC(=O)[C@H](CCC(N)=O)NC(=O)[C@@H](NC(=O)[C@H](Cc1c[nH]cn1)NC(=O)[C@H](CCC(N)=O)NC(=O)[C@H](CC(=O)O)NC(=O)[C@H](CCC(=O)O)NC(=O)[C@H](CC(=O)O)NC(=O)CCC(=O)NCCCOCCOCCOCCCNC(=O)CCCC[C@@H]1SC[C@@H]2NC(=O)N[C@@H]21)[C@@H](C)O)C(=O)N[C@H](C(=O)N[C@@H](CCCNC(=N)N)C(=O)N[C@H](C(=O)O)C(C)C)[C@@H](C)O [PTEN_KR] ({X1-Suc}-DEDQHTQITRV-OH)
Kd (DLG1 PDZ 2): 70.8 µM
BI (DLG1 PDZ 2): 0.253
Kd (DLG4 PDZ 1): 81.1 µM
BI (DLG4 PDZ 1): 0.229
Kd (MAGI2 PDZ 3): 21.2 µM
BI (MAGI2 PDZ 3): 0.52
BI (SCRIB-3): 0.022
BI (APBA2-2): -0.002
LogKD (APBA2-2): 3.655
BI (APBA3-1): -0.056
LogKD (APBA3-1): 3.655
BI (ARHGAP23-1): -0.018
LogKD (ARHGAP23-1): 3.655
BI (CNKSR3-1): -0.031
LogKD (CNKSR3-1): 3.655
BI (DFNB31-2): -0.046
LogKD (DFNB31-2): 3.655
BI (DLG3-1): 0.066
LogKD (DLG3-1): 3.655
BI (FRMPD1-1): -0.047
LogKD (FRMPD1-1): 3.655
BI (FRMPD4-1): -0.051
LogKD (FRMPD4-1): 3.655
BI (GIPC1-1): 0.02
LogKD (GIPC1-1): 3.655
BI (GRIP1-4): -0.042
LogKD (GRIP1-4): 3.655
BI (GRIP2-3): 0.027
LogKD (GRIP2-3): 3.655
BI (IL16-3): -0.005
LogKD (IL16-3): 3.655
BI (INADL-10): 0.019
LogKD (INADL-10): 3.655
BI (INADL-2): 0.064
LogKD (INADL-2): 3.655
BI (INADL-7): 0.176
BI (INTU-1): -0.043
LogKD (INTU-1): 3.655
BI (LIN7B-1): -0.078
LogKD (LIN7B-1): 3.655
BI (LRRC7-1): 0.14
BI (MAGI1-5): 0.619
Kd (MAGI1-5): 13.9 µM
BI (MAGIX-1): 0.018
LogKD (MAGIX-1): 3.655
BI (MLLT4-1): 0.021
LogKD (MLLT4-1): 3.655
BI (MPDZ-1): -0.039
LogKD (MPDZ-1): 3.655

CC[C@H](C)[C@H](NC(=O)[C@H](CCC(N)=O)NC(=O)[C@@H](NC(=O)[C@H](Cc1c[nH]cn1)NC(=O)[C@H](CCC(N)=O)NC(=O)[C@H](CC(=O)O)NC(=O)[C@H](CCC(=O)O)NC(=O)[C@H](CC(=O)O)NC(=O)CCC(=O)NCCCOCCOCCOCCCNC(=O)CCCC[C@@H]1SC[C@@H]2NC(=O)N[C@@H]21)[C@@H](C)O)C(=O)N[C@H](C(=O)N[C@@H](CCCCNC(C)=O)C(=O)N[C@H](C(=O)O)C(C)C)[C@@H](C)O [PTEN_Ac]
Kd (DLG1 PDZ 2): 35.6 µM
BI (DLG1 PDZ 2): 0.425
BI (DLG4 PDZ 1): 0.15
BI (MAGI1 PDZ 2): 0.101
Kd (MAGI2 PDZ 3): 15.3 µM
BI (MAGI2 PDZ 3): 0.625
BI (SCRIB-3): -0.053
BI (APBA2-2): -0.03
LogKD (APBA2-2): 3.605
BI (APBA3-1): -0.113
LogKD (APBA3-1): 3.605
BI (ARHGAP23-1): -0.108
LogKD (ARHGAP23-1): 3.605
BI (DFNB31-2): -0.091
LogKD (DFNB31-2): 3.605
BI (DLG3-1): 0.013
LogKD (DLG3-1): 3.605
BI (FRMPD1-1): -0.03
LogKD (FRMPD1-1): 3.605
BI (FRMPD4-1): -0.076
LogKD (FRMPD4-1): 3.605
BI (GIPC1-1): 0.035
LogKD (GIPC1-1): 3.605
BI (GRIP1-4): 0.038
LogKD (GRIP1-4): 3.605
BI (GRIP2-3): 0.055
LogKD (GRIP2-3): 3.605
BI (IL16-3): -0.166
LogKD (IL16-3): 3.605
BI (INADL-7): 0.306
Kd (INADL-7): 60.7 µM
BI (INTU-1): 0.042
LogKD (INTU-1): 3.605
BI (LIN7B-1): -0.004
LogKD (LIN7B-1): 3.605
BI (LRRC7-1): -0.028
LogKD (LRRC7-1): 3.605
BI (MAGI1-5): 0.647
Kd (MAGI1-5): 13.9 µM
BI (MAGIX-1): -0.034
LogKD (MAGIX-1): 3.605
BI (MPDZ-1): 0.074
LogKD (MPDZ-1): 3.605
